Source: patent publication US20250161241A1, “CYSTEAMIDES, THERAPEUTIC COMPOSITIONS THEREOF, AND RELATED METHODS” (Boyce Thompson Institute for Plant Research, Inc., priority 2022, published 2025)

Key:
brain-resident Tregs = experiment: brain-resident Treg levels in mice after oral gavage (flow cytometry, i.v. CD45 labeling); format: in vivo, mouse; conditions: SPF mice, oral gavage 50 mg/kg/day, 14 days, vs vehicle; brain tissue; FIG. 66 top row
Description: (§1) Butyrate-MCY (dissolved in water) was delivered by oral gavage at a rate of 50 mg/kg body weight per day in a volume of 100 μL for two weeks.
For isolation of brain leukocyte populations, mice were euthanized with CO2 and perfused through the left ventricle with 20 mL PBS. The whole brain was removed and placed in 2.5 mL digestion buffer (PBS, 5% FCS, 1 mM HEPES) before being finely chopped. Collagenase D (Roche, 400 U) was added to the mixture, which was then incubated at 37° C. for 30 min before adding 50 μL 0.5 M EDTA, followed by a 5-min incubation. […]
(§2) All antibodies above were used at 1:200 dilutions, except FoxP3 were used at 1:100 dilutions. Stained cells were analyzed on a 5 laser, 18 color custom-configuration BD LSRFortessa (BD). Data were collected using BD FACSDiva version 9.0 and analyzed using FlowJo (version 10.7.1, Tree Star).
For functional evaluation, the previously unreported MCY conjugates of butyrate were prioritized, given that their microbiota-dependent production is conserved in humans and considering that the corresponding parent metabolite, butyrate, serves important roles in immune homeostasis. […] SPF mice were supplemented via oral gavage with butyrate-MCY (50 mg/kg/day, 100 μL/day, 14 days), which was identified in the brain and serum metabolomes and the levels of brain-resident Tregs was measured. […]

gut Tregs (colon tissue) = experiment: colon (gut) Treg levels in mice after oral gavage (flow cytometry); format: in vivo, mouse; conditions: SPF mice, oral gavage 50 mg/kg/day, 14 days, vs vehicle, FIG. 66 bottom row
Description: as §1
Mouse colons were removed, cleaned of attached fat tissues, and washed in ice-cold PBS (Sigma-Aldrich). They were then opened longitudinally and washed again in ice-cold PBS. Dissociation of epithelial cells was performed by shaking at 37° C. in HBSS (Sigma-Aldrich) containing 10 mM HEPES, 10 mM EDTA (Thermo Fisher Scientific) and 2 mM dithiothreitol (DTT) two times for 15 min each. After each step, samples were vortexed, and the supernatant containing the epithelial fraction was removed. […]
as §2
For functional evaluation, the previously unreported MCY conjugates of butyrate were prioritized, given that their microbiota-dependent production is conserved in humans and considering that the corresponding parent metabolite, butyrate, serves important roles in immune homeostasis. […] FIG. 66 (top row) provides representative flow cytometry plots of Tregs and quantification of Tregs as percentage of all CD4+ T cells in brain tissue from vehicle or butyrate-MCY treated mice. […]

CCCC(=O)NCCSC [butyrate-MCY]
percentage of brain-resident Tregs amongst CD4+ T cells (brain-resident Tregs): significantly decreased
percentage of gut Tregs amongst CD4+ T cells (gut Tregs (colon tissue)): significantly decreased
